Laboratory results reported in ChEMBL document CHEMBL1148601, “Inhibition of cytosolic phospholipase A2alpha: hit to lead optimization” (J Med Chem, 2006).
Calls of active or inactive are those of the source. The calls are words filed in the database; no cut-off is given here.

Legend:
[1] = Inhibition of TXB2 production in Sprague-Dawley rat whole blood; format: functional, tissue-based
[2] = molecular target: T1, Cytosolic phospholipase A2 (Homo sapiens, UniProt P47712); assay: Inhibition of cytosolic phospholipase A2-alpha in GLU micelle assay
T1 sequence (P47712 whole entry): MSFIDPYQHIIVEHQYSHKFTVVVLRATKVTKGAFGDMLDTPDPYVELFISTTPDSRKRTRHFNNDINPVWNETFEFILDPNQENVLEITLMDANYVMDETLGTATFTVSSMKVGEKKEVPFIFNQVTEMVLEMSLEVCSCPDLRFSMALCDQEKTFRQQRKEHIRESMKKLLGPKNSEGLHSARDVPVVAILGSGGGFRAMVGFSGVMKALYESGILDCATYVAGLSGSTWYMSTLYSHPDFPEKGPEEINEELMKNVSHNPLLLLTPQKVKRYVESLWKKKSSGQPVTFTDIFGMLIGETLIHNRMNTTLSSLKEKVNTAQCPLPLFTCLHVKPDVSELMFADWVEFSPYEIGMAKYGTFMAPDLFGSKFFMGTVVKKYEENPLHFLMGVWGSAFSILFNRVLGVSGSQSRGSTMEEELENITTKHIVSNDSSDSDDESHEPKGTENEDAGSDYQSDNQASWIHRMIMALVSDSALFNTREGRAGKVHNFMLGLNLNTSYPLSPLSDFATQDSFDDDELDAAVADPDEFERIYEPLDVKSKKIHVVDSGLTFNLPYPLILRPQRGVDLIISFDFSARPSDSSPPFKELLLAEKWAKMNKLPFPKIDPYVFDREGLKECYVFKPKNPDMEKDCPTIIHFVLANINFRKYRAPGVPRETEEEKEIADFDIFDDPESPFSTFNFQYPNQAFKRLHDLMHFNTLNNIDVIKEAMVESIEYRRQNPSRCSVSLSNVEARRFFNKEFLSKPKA

Rattus norvegicus = organism: Rattus norvegicus; assay: (§1) Inhibition of TXB2 production in Sprague-Dawley rat whole blood at 10 uM; format: functional, tissue-based
[3] = as §1; format: functional, tissue-based
[4] = Inhibition of LTB4 production expressed in MC9 cells in presence of 1 megacells/mL; format: functional, cell-based; settings: Mus musculus
[5] = Inhibition of LTB4 production expressed in MC9 cells in presence of 8 megacells/mL; format: functional, cell-based; settings: Mus musculus
[6] = Inhibition of LTB4 production expressed in MC9 cells in presence of 4 megacells/mL; format: functional, cell-based; settings: Mus musculus
[7] = Oral bioavailability in rat; format: ADME, organism-based; settings: in vivo
[8] = Inhibition of PGF2-alpha production in MC9 cells at 0.5 uM; format: functional; settings: Mus musculus
[9] = Inhibition of LTB4 production in MC9 cells at 0.5 uM; format: functional; settings: Mus musculus
[10] = Inhibition of LTB4 production in human whole blood; format: functional, tissue-based
[11] = Inhibition of PGF2-alpha production in the presence of exogenous arachidonic acid in MC9 cells at 0.5 uM; format: functional; settings: Mus musculus
[12] = Inhibition of TXB2 production in human whole blood; format: functional, tissue-based
[13] = Plasma concentration in rat; format: ADME, organism-based
[14] = Inhibition of LTB4 production in MC9 cells at 1.5 uM; format: functional; settings: Mus musculus
[15] = Inhibition of PGF2-alpha production in the presence of exogenous arachidonic acid in MC9 cell at 1.5 uM; format: functional; settings: Mus musculus
[16] = Inhibition of PGF2-alpha production in MC9 cells at 1.5 uM; format: functional; settings: Mus musculus

IC50 [1] [µM] | IC50 [2] [µM] | SMILES | other results
13 | 38 | Cc1c(CCOC(=O)Nc2ccc(C(=O)O)cc2)c2cc(Cl)ccc2n1C(c1ccccc1)c1ccccc1 | 
2 | 3 | Cc1c(CCOc2ccc(CCC(=O)O)cc2)c2cc(Cl)ccc2n1C(c1ccccc1)c1ccccc1 | 
50 | 20 | Cc1c(CCOc2ccc(CCCC(=O)O)cc2)c2cc(Cl)ccc2n1C(c1ccccc1)c1ccccc1 | 
 | 8 | Cc1c(CCOc2ccc(C(=O)O)cc2)c2cc(N)ccc2n1C(c1ccccc1)c1ccccc1 | inhibition (Rattus norvegicus): inactive
3 | 1 | Cc1c(CC[S+]([O-])c2ccc(C(=O)O)cc2)c2cc(Cl)ccc2n1C(c1ccccc1)c1ccccc1 (centres undefined) | 
 | 85 | Cc1c(CCOc2ccc(C(=O)O)cn2)c2cc(Cl)ccc2n1C(c1ccccc1)c1ccccc1 | IC50 [3]: Not Active
13 | 6 | Cc1c(CCOc2ccc(C(=O)O)cc2)c2ccc(Cl)cc2n1C(c1ccccc1)c1ccccc1 | 
48 | > 10 | Cc1c(CCOc2ccc(CC(=O)O)cc2)c2cc(Cl)ccc2n1C(c1ccccc1)c1ccccc1 | 
> 10 | 22 | Cc1c(CCOc2ccc(C(=O)O)cc2)c2cc(N3CCOCC3)ccc2n1C(c1ccccc1)c1ccccc1 | 
 | 2 | Cc1c(CCCc2ccc(C(=O)O)cc2)c2cc(Cl)ccc2n1C(c1ccccc1)c1ccccc1 | 
7 | 3 | COc1ccc2c(c1)c(CCS(=O)(=O)c1ccc(C(=O)O)cc1)c(C)n2C(c1ccccc1)c1ccccc1 | 
10 | 2 | Cc1c(CCSc2ccc(C(=O)O)cc2)c2cc(Cl)ccc2n1C(c1ccccc1)c1ccccc1 | 
> 25 | 23 | Cc1c(CCNc2ccc(C(=O)O)cc2)c2cc(Cl)ccc2n1C(c1ccccc1)c1ccccc1 | 
9 | 33 | Cc1c(CCOc2ccc(C(=O)O)cc2)c2cc(-c3ccccc3)ccc2n1C(c1ccccc1)c1ccccc1 | 
9 | 2 | Cc1c(CCCCOc2ccc(C(=O)O)cc2)c2cc(Cl)ccc2n1C(c1ccccc1)c1ccccc1 | 
> 50 | 120 | Cc1c(CCOc2cccc(C(=O)O)c2)c2cc(Cl)ccc2n1C(c1ccccc1)c1ccccc1 | 
7 | 3 | Cc1c(CCOc2ccc(C(=O)O)cc2)c2cc(Cl)ccc2n1C(c1ccccc1)c1ccccc1 | bioavailability [7]: 2.6%; inhibition at 1.5 µM [14]: 96%; inhibition at 1.5 µM [15]: -8%; IC50 [10]: 30 µM; IC50 [12]: 34 µM; inhibition at 1.5 µM [16]: 81%; clearance [13]: 3.2 mL/min/kg
3 | 2 | Cc1c(CCOc2ccc(C(=O)O)cc2)c2cc(Br)ccc2n1C(c1ccccc1)c1ccccc1 | 
8 | 5 | Cc1c(CCOc2ccc(C(=O)O)cc2)c2cc([N+](=O)[O-])ccc2n1C(c1ccccc1)c1ccccc1 | 

Second part, the compound before the results:

SMILES | IC50 [1] [µM] | IC50 [2] [µM] | other results
Cc1c(CCS(=O)(=O)c2ccc(C(=O)O)cc2)c2ccc(Cl)cc2n1C(c1ccccc1)c1ccccc1 | 5 | 4 | 
Cc1c(CCOc2ccc(C(=O)O)c(F)c2)c2cc(Cl)ccc2n1C(c1ccccc1)c1ccccc1 | 8 | 2 | 
Cc1c(CCS(=O)(=O)CCc2ccc(C(=O)O)cc2)c2cc(Cl)ccc2n1C(c1ccccc1)c1ccccc1 | 14 | 93 | 
Cc1c(CCOc2ccc(C(=O)O)c(Cl)c2)c2cc(Cl)ccc2n1C(c1ccccc1)c1ccccc1 | 25 | 7 | 
COC(=O)c1ccc(OCCc2c(C(C)(C)C)n(C(c3ccccc3)c3ccccc3)c3ccc(Cl)cc23)cc1 | > 25 | 20 | 
Cc1c(CCS(=O)(=O)c2ccc(C(=O)O)cc2)c2cc(Cl)c(Cl)cc2n1C(c1ccccc1)c1ccccc1 | 2 | 3 | 
Cc1c(CC[S+]([O-])CCc2ccc(C(=O)O)cc2)c2cc(Cl)ccc2n1C(c1ccccc1)c1ccccc1 (centres undefined) | 25 | 18 | 
O=C(O)c1ccc(OCC(O)Cc2cn(C(c3ccccc3)c3ccccc3)c3cc(Cl)ccc23)cc1 (centres undefined) | 100 | 40 | 
COc1cc(C(=O)O)ccc1Cc1cn(C(c2ccccc2)c2ccccc2)c2cc(Cl)ccc12 | > 400 | 160 | IC50 [4]: 0.8 µM; IC50 [5]: 8.3 µM; IC50 [6]: 1.5 µM
Cc1c(C(=O)C(=O)Nc2ccc(C(=O)O)cc2)c2cc(Cl)ccc2n1C(c1ccccc1)c1ccccc1 | 25 | 26 | 
O=C(O)c1ccc(OCC(O)COc2ccc(SCCCCCc3ccccc3)cc2)cc1 (centres undefined) | > 100 | 340 | 
Cc1c(CCS(=O)(=O)c2ccc(CCC(=O)O)cc2)c2cc(Cl)ccc2n1C(c1ccccc1)c1ccccc1 | 0.8 | 0.5 | bioavailability [7]: 11%; inhibition at 0.5 µM [8]: 100%; inhibition at 0.5 µM [9]: 100%; IC50 [10]: 0.9 µM; inhibition at 0.5 µM [11]: 2%; IC50 [12]: 1.4 µM; clearance [13]: 47 mL/min/kg
O=C(O)c1ccc(OCCc2c(-c3ccccc3)n(C(c3ccccc3)c3ccccc3)c3ccc(Cl)cc23)cc1 | > 50 | > 50 | 
O=C(COc1ccc(SCCCCCc2ccccc2)cc1)COc1ccc(C(=O)O)cc1 | 12 | 0.04 | IC50 [6]: 1.5 µM
Cc1c(CCS(=O)(=O)c2ccc(C(=O)O)cc2)c2cc(Cl)ccc2n1C(c1ccccc1)c1ccccc1 | 2 | 0.8 | bioavailability [7]: 39%; inhibition at 0.5 µM [8]: 72%; inhibition at 0.5 µM [9]: 82%; IC50 [10]: 6.3 µM; inhibition at 0.5 µM [11]: 8%; IC50 [12]: 8.4 µM; clearance [13]: 44 mL/min/kg
Cc1c(CC(=O)O)c2cc(Cl)ccc2n1C(c1ccccc1)c1ccccc1 | < 100 | 165 | 
Cc1c(CCOc2ccc(C(=O)O)cc2Cl)c2cc(Cl)ccc2n1C(c1ccccc1)c1ccccc1 | 25 | 11 | 
COc1c(Cc2cn(C(c3ccccc3)c3ccccc3)c3cc(Cl)ccc23)cccc1C(=O)O |  | 120 | 
O=C(O)c1ccc(OCCc2cn(C(c3ccccc3)c3ccccc3)c3ccc(Cl)cc23)cc1 | 14 | 5 | 
O=C(O)c1cccc(CC(O)Cc2cn(C(c3ccccc3)c3ccccc3)c3cc(Cl)ccc23)c1 (centres undefined) |  | 90 | 
Cc1c(CCS(=O)(=O)c2ccc(C(=O)O)cc2)c2cccc(Cl)c2n1C(c1ccccc1)c1ccccc1 | 10 | 6 | 
Cc1c(CCS(=O)(=O)c2ccc(C(=O)O)cc2)c2c(Cl)cccc2n1C(c1ccccc1)c1ccccc1 | 12 | 2 | 
Cc1c(CCOc2cc(C(=O)O)on2)c2cc(Cl)ccc2n1C(c1ccccc1)c1ccccc1 | > 50 | 40 | 
Cc1c(CCS(=O)(=O)c2ccc(C(=O)O)cc2)c2c(Cl)c(Cl)ccc2n1C(c1ccccc1)c1ccccc1 | 4 | 1 | 
Cc1c(CCC(=O)NCc2ccc(C(=O)O)cc2)c2cc(Cl)ccc2n1C(c1ccccc1)c1ccccc1 | 50 | 30 | 
Cc1c(CCS(=O)(=O)c2ccc(C(=O)O)cc2)c2ccccc2n1C(c1ccccc1)c1ccccc1 | 6 | 2 | 
Cc1c(CCS(=O)(=O)c2ccc(C(=O)O)cc2)c2cc(F)ccc2n1C(c1ccccc1)c1ccccc1 | 5 | 1 | 
